Assay results reported in US6608086B2, “Dihydropyridines and new uses thereof” (Synaptic Pharmaceutical Corporation, priority 1993, dated 2003).
Where two headings read alike, the source gives them in different places.

Assays:
α2C receptor = biological target: T1, α2C receptor (Homo sapiens, UniProt P18825); test: Competition binding, [3H]rauwolscine, human α2C receptor; conditions: [3H]rauwolscine, human α2C receptor, LM(tk−) cells
T1 construct: host or cells: LM(tk-) cells, line L-α2C
T1 sequence (P18825 1-462): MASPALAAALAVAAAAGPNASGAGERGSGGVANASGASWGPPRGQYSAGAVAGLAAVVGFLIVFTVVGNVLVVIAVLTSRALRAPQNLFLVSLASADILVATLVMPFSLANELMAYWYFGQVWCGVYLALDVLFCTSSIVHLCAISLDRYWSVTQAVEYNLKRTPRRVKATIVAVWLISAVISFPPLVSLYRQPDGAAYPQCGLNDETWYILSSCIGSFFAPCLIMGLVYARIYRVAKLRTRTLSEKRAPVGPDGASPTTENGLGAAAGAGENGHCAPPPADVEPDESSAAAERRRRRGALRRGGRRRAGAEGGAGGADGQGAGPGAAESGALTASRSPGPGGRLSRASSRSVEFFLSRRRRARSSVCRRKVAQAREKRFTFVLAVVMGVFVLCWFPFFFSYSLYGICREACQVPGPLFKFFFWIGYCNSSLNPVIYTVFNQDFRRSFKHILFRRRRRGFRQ
Procedure, shortened: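 Filter-bound [3H]rauwolscine (0.5 nM) was measured after equilibrium competition with test antagonists on lysates of LM(tk−) cells stably transfected with each human α2 subtype. Buffer: 25 mM glycylglycine, pH 7.6 at room temperature; 10 μM phentolamine gave nonspecific binding.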

L-type calcium channel = biological target: T2, L-type calcium channel (Rattus norvegicus, UniProt P22002); test: Competition binding of [3H]nitrendipine to membrane fragments of rat cardiac muscle; conditions: [3H]nitrendipine, rat cardiac muscle membrane fragments, L-type calcium channel; read-out: pKi Ca (converted)
T2 construct: membrane fragments of rat cardiac muscle; from tissue; host or cells: rat cardiac muscle membranes

[1] = biological target: T3, α1C Human Adrenergic Receptor (Homo sapiens, UniProt P35348); test: Radioligand binding, [3H]prazosin, cloned human α1C adrenergic receptor; conditions: cloned human α1C receptor, LM(tk−) cell membranes
T3 construct: The entire coding region of α1C (1401 bp); expressed in transfected cells
T3 sequence (P35348 1-466): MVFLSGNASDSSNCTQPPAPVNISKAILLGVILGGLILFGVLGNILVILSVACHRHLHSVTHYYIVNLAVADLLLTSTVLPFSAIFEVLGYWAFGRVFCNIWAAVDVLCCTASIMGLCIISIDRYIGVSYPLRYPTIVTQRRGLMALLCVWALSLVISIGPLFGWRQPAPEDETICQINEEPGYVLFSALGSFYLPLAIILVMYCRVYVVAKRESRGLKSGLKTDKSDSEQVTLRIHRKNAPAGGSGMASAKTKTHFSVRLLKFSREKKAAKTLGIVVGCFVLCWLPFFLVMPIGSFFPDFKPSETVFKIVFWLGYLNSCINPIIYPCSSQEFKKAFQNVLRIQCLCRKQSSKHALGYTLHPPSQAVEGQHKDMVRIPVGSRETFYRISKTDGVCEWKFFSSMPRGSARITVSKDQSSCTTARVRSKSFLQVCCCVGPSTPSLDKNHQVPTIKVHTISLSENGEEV
Procedure, shortened: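 Read-out is filter-retained [3H]prazosin (0.5 nM) bound to membranes of LM(tk−) cells stably carrying the human α1C receptor. Incubation ran 20 min at 37° C. at pH 7.5, with 10 μM phentolamine marking nonspecific binding.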

[2] = read-out: pKi alpha-2 2c (converted)
[3] = read-out: pKi alpha-1 1c (converted)

T2 sequence (P22002 whole entry, other chains not shown, the tested form may be a part): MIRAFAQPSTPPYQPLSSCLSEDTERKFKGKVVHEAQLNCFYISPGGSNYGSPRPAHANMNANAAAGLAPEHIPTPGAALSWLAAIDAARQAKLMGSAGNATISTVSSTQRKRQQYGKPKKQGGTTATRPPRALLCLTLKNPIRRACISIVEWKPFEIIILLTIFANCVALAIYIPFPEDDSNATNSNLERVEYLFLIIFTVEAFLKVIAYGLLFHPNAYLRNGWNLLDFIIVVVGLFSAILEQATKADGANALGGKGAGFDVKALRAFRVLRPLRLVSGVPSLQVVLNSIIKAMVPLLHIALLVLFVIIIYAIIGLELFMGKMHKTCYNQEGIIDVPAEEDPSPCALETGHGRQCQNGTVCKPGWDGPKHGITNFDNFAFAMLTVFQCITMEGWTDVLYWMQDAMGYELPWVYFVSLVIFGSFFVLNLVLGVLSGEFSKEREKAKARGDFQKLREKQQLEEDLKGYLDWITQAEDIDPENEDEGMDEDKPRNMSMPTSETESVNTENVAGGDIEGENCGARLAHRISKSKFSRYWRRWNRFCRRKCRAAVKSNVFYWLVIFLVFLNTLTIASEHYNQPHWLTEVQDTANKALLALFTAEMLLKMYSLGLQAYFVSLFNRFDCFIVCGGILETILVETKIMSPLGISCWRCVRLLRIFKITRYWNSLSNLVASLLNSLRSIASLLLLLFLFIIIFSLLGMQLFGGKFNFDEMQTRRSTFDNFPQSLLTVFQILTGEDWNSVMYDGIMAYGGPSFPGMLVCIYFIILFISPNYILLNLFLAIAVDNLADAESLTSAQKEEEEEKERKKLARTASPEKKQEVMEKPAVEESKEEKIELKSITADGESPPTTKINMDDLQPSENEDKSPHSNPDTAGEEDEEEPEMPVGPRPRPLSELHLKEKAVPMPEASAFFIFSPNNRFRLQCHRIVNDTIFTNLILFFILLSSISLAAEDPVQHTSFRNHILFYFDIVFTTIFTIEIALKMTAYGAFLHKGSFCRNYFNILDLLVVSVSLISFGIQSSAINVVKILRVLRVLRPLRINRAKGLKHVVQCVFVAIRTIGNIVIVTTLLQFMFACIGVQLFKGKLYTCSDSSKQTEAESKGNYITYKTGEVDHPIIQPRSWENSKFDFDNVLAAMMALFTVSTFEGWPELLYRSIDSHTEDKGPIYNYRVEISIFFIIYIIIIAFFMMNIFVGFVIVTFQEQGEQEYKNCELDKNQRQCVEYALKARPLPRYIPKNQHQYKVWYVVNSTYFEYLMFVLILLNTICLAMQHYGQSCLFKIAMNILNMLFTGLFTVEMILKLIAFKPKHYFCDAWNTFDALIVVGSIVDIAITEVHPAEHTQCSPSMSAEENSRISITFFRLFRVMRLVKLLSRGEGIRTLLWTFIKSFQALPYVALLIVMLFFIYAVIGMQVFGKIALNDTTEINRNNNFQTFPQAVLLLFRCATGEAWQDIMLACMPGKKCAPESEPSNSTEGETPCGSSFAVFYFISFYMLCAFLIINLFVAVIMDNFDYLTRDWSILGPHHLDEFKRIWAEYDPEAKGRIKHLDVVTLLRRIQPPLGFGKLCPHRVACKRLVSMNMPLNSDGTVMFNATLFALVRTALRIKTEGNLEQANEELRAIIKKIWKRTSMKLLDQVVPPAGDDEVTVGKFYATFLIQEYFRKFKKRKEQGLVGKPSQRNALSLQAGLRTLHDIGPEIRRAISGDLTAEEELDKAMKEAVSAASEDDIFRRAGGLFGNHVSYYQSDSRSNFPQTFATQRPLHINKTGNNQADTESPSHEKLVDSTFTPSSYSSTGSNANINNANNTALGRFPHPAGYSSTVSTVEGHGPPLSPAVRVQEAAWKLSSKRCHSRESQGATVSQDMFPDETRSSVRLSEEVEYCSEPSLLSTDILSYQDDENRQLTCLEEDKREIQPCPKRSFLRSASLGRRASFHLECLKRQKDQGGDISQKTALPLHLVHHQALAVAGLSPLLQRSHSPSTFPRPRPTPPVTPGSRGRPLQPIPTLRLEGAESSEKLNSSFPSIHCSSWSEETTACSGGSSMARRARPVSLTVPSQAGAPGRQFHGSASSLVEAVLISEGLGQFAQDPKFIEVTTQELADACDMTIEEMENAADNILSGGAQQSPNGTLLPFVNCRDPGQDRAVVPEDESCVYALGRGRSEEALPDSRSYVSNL
T2 sequence (P54290 25-944 partner limits assumed, other chains not shown): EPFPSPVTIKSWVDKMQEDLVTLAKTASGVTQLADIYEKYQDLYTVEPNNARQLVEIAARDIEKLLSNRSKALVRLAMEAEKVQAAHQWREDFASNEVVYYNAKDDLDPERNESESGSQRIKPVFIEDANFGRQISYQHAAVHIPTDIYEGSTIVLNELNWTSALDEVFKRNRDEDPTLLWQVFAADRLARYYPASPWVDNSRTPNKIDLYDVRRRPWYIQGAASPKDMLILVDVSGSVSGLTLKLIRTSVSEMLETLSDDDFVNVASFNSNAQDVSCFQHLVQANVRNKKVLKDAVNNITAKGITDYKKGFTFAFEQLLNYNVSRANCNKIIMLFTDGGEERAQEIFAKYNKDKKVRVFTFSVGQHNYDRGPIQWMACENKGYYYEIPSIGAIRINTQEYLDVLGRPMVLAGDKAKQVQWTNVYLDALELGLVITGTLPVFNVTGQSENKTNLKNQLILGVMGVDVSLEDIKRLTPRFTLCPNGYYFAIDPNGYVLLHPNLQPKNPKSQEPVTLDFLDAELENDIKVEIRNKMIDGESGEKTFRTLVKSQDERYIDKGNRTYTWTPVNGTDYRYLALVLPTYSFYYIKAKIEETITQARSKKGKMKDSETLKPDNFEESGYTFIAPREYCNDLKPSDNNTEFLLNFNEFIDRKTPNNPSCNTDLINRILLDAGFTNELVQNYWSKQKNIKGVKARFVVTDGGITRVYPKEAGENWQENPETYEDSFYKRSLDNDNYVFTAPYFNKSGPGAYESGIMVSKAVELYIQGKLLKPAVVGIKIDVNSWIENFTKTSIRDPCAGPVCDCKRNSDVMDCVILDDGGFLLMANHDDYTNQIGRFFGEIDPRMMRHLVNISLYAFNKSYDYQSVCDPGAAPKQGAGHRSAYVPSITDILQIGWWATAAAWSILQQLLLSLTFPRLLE
T2 sequence (P54290 945-1091 partner limits assumed, other chains not shown): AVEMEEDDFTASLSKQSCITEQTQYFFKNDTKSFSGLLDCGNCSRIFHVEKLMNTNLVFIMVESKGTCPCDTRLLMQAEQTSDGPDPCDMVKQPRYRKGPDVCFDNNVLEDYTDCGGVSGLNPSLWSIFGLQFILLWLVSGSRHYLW

Structure (SMILES) | Ki (α2C receptor; [2]) [µM] | Ki (L-type calcium channel) [µM] | Ki ([1]; pKi alpha-1 1c) [µM] | Ki (α2C receptor; pKi alpha-2 2c) [µM] | Ki [1, 3] [µM] | pKi alpha-2 2c (α2C receptor)
CC1=C(C(N)=O)C(c2ccc(S(C)(=O)=O)cc2)C(C(=O)NCCCN2CCC(c3ccccc3)(c3ccccc3)CC2)=C(C)N1 (stereo not drawn) [Example 115, 5-Carboxamido-1,4-4-dihydro-4-(4-methanesufonylphenyl)-2,6-dimethyl-3-(N-(3-(4,4-diphenylpiperidin-1-yl)propyl)carboxamido)-pyridine] | 2.29 | 1000 | 0.0589 |  |  | 
COc1cccc(C2C(C(N)=O)=C(C)NC(C)=C2C(=O)NCCCN2CCC(c3ccccc3)(c3ccccc3)CC2)c1 (stereo not drawn) [Example 117, 5-Carboxamido-1,4-dihydro-4-(3-Methoxyphenyl)-2,6-dimethyl-3-(N-(3-(4,4-diphenylpiperidin-1-yl)propyl)carboxamido)-pyridine] | 0.759 | 1000 | 0.0275 |  |  | 
CCC1=C(C(N)=O)C(c2ccc(S(C)(=O)=O)cc2)C(C(=O)NCCCN2CCC(c3ccccc3)(c3ccccc3)CC2)=C(C)N1 (stereo not drawn) [Example 118, 3-Carboxamido-2-ethyl-1,4-dihydro-4-(4-methanesulfonylphenyl)-6-methyl-3-(N-(3-(4,4-diphenylpiperidin-1-yl)propyl)carboxyamido)-pyridine] |  | 1000 | 0.00955 | 2.24 |  | 
CCC1=C(C(N)=O)C(c2ccc([N+](=O)[O-])cc2)C(C(=O)NCCCN2CCN(c3ccccc3OC)CC2)=C(CC)N1 (stereo not drawn) [Example 125, 5-Carboxamido-2,6-diethyl-1,4-dihydro-3-(N-{3-[4-(2-methoxyphenyl)piperazin-1-yl]propyl})carboxamido-4-(4-nitrophenyl)pyridine] | 0.0229 | 38 |  |  | 0.00115 | 
CC(C)C1=C(C(N)=O)C(c2ccc([N+](=O)[O-])cc2)C(C(=O)NCCCN2CCC(c3ccccc3)(c3ccccc3)CC2)=C(C(C)C)N1 (stereo not drawn) [Example 127] |  | 1000 | 0.055 |  |  | 6.37
CC1=C(C(=O)NCCCN2CCC(c3ccccc3)(c3ccccc3)CC2)C(c2ccc([N+](=O)[O-])cc2)C(C(=O)NC(C)C)=C(C)N1 (stereo not drawn) [Example 156, 1,4-Dihydro-3-(N-isopropyl) carboxamido-2,6-dimethyl-4-(4-nitrophenyl)-5-{N-[3-(^414-diphenylpiperidin-1-yl)propyl]}carboxamidopyridine] | 0.219 | 75.9 | 0.0955 |  |  | 
CC1=C(C(=O)NCCCN2CCC(c3ccccc3)(c3ccccc3)CC2)C(c2ccc([N+](=O)[O-])cc2)C(C(=O)OCCC#N)=C(C)N1 (stereo not drawn) [Example 160] | 0.155 | 15.5 |  |  | 0.00794 | 
CNC(=O)C1=C(C)NC(C)=C(C(=O)NCCCN2CCC(O)(c3ccccc3)CC2)C1c1ccc([N+](=O)[O-])cc1 (stereo not drawn) [Example 162, 1,4-Dihydro-3-{N-[3-(4-hydroxy-4-phenylpiperidin-1-yl)propyl]}carboxamido-2,6-dimethyl-5-(N-methyl)carboxamido-4-(4-nitrophenyl)pyridine] | 0.55 | 50.1 | 0.0115 |  |  | 
